Here are results for 1 molecule from patent US20220096515A1, “Methods and Formulations for Preventing Neurological or Psychiatric Disorders” (Huntington Medical Research Institutes, priority 2020, published 2022).

Experiment [1] has as its system periventricular endothelial cells isolated from E15 wildtype (CD1) forebrain. The experiment is described as follows: Tube formation under normal culture conditions (no Matrigel). In kind it is cell-based, mouse. The settings on record: absence of Matrigel. The method, then:
(§1) Primary culture of endothelial cells and endothelial cell staining: Embryonic brains were dissected under a stereo-microscope, after the NAD^+ treatment paradigm and the telencephalon was removed. Pial membranes were peeled off. Telencephalon without pial membranes from the periventricular region was pooled. Purity of endothelial cell cultures was established with endothelial cell markers and determined to be one hundred percent. Isolation and culture of endothelial cells were performed according to published methodology. Periventricular endothelial cells were prepared from CD1 (wild type), saline-treated Gabrb3^fl/fl, saline-treated Gabrb3^ECKO, and NAD^+-treated Gabrb3^ECKO embryos. Endothelial cells were labeled with anti-biotinylated isolectinB4 (1:100, Sigma), anti-GABA (1:400, Sigma), anti-DAXX (1:100, Santa Cruz Biotechnology) and anti-P2X4 (1:100, Abclonal) followed by secondary detection with AlexaFluor conjugates (Invitrogen). DAPI (Invitrogen) was used to label nuclei. Images were taken on an FSX100 microscope (Olympus). 1 million cells were examined for each immunohistochemistry condition.
In one experiment, periventricular endothelial cells were isolated from E15 wildtype (CD1) forebrain and tested the effect of NAD^+ addition in vitro. […]

Experiment [2] concerns Gabrb3^ECKO endothelial cells. Description: qRT-PCR of periventricular endothelial cells after prenatal treatment. In kind it is in vivo, mouse. Here is the method: as §1
Quantitative real-time PCR: RT was performed by using iScript Reverse Transcription Supermix kit (Bio-Rad). PCR reactions were run on a CFX96 Touch Real Time PCR (Bio-Rad) with SsoAdvanced™ Universal SYBR® Green Supermix (Bio-Rad). Primers for qPCR (Daxx, P2x4, P2x7, P2y13, Tek, vwf, F2r, Sirt2, Nos1, Nrp1, Pax6, Gad1, Gad2, Grin2a, Trpm2, Trpc4 and Trpv6) were obtained from Thermo Fisher Scientific. The housekeeping gene Gapdh was used as a reference. The relative gene expression and subsequent fold changes among different samples were determined according to published methodology.
To gain mechanistic insights into NAD^+ action on endothelial cells, periventricular endothelial cells were isolated from saline-treated Gabrb3^fl/fl, saline-treated Gabrb3^ECKO, and NAD^+-treated Gabrb3^ECKO groups at the end of the treatment paradigm. […] GABA is synthesized from glutamate by Gad genes. […] The qRT-PCR gene expression levels followed a similar trend with that of the levels in the microarray data, reinforcing that the whole-tissue microarray was capable of highlighting some endothelial cells specific gene changes (FIGS. 10A-10I). […] Taken together, our results implicate NAD^+ as a critical modulator of angiogenesis in the embryonic forebrain.
On the technique in general: Quantitative PCR measures a nucleic acid by following its amplification.

The test system of the next experiment is Daxx. Description: Daxx mRNA and protein levels in endothelial cells after prenatal treatment. In kind it is in vivo, mouse. Here is the method:
as §1
Quantitative real-time PCR: RT was performed by using iScript Reverse Transcription Supermix kit (Bio-Rad). […] The relative gene expression and subsequent fold changes among different samples were determined according to published methodology. […]

Experiment [3] has as its system Gabrb3^ECKO mice. The experiment is described as follows: Nest building (nestlets and shredded paper). The class given is in vivo, mouse. The method, then: (§2) Behavioral Experiments: Mice were housed in our animal facility with a 12-hour light cycle with ad libitum access to food and water. Offspring stayed with their mothers until weaning at PND 21 after which males and females were separated. Before all behavioral testing, mice were acclimated to the testing room for 1 hour. Behavioral assays were performed according to established protocols referenced here: self-grooming, light-dark box, tail suspension test, Y-maze, open field locomotion activity, three chamber social interaction test and nest building with nestlets and with shredded paper. Both males and females were used for all behavioral assays. Experimenters scoring behaviors were blinded to the genotypes and treatment. Sample sizes for each assay are noted in figure legends.
Therefore, behavioral tests were performed to screen for stress, anxiety, locomotion, cognition, and sociability in saline-treated Gabrb3^fl/fl mice, saline-treated Gabrb3^ECKO mice and NAD^+-treated Gabrb3^ECKO mice. Mice from saline and NAD^+-treated groups were housed individually in cages containing wood chip bedding and two nestlets (pressed cotton) (FIGS. 16A-16D) or more naturalistic material like shredded paper strips (FIGS. 16E-16H). […] This rescue of home cage social behavior was a robust indication of well-being in NAD^+-treated Gabrb3^ECKO mice. […]

Experiment [4] concerns Gabrb3^ECKO mice. The experiment is described as follows: Light-dark transition test. The following applies: after prenatal treatment. The class given is in vivo, mouse. The method, then: as §2
Anxiety was next assessed with the classic light-dark transition test which triggers a struggle between the desires to explore a novel environment versus natural aversion of a brightly illuminated open space. […] The Y maze spontaneous alternation test was used to evaluate for spatial learning and memory in the three groups of mice. After introduction to the center of the maze, the mice were given free access to all three arms. […] The total number of arm entries and the sequence of entries are recorded in order to calculate the percentage of alternation. […]

Experiment [5] deals with Gabrb3^ECKO mice. The experiment is described as follows: Three-chamber social communication test. In kind it is in vivo, mouse. Here is the method:
as §2
This is indicative of rescue of social motivation, memory and novelty exploration in NAD^+-treated Gabrb3^ECKO mice (FIG. 14L).

The mark [6] stands for this setting: periventricular endothelial cells after prenatal treatment.

As to `NC(=O)c1ccc[n+]([C@@H]2O[C@H](COP(=O)([O-])OP(=O)(O)OC[C@H]3O[C@@H](n4cnc5c(N)ncnc54)[C@H](O)[C@@H]3O)[C@@H](O)[C@H]2O)c1` [NAD^+], in experiment [1], the tube formation result is “started showing tube formation properties under normal culture conditions”. For the same molecule, in experiment [2] (after NAD^+ treatment), the “P2X7 and P2Y13 mRNA expression” value was “rescue of P2X7 and P2Y13 mRNA expression”. In experiment [2] (setting [6]), the “Gad1 and Gad2 expression by qRT-PCR” value was “concurrently rescued”; the “calcium signaling genes (Grin2a, Trpm2, Trpc4, Trpv6) by qRT-PCR” value is “rescue of several calcium signaling genes”; the “expression of angiogenesis regulators (Tek, vWF, F2r, Sirt2, Nos1, Pax6) by qRT-PCR” value is given as “restored the expression of several critical regulators of angiogenesis”. Besides, the “Daxx mRNA and DAXX protein levels” value in the experiment with Daxx was “normalize DAXX levels”. Moreover, the nest building ability result in the experiment with Gabrb3^ECKO mice [3] is listed as “significant improvement in their nest building ability”. The “time in light vs dark sides” value with Gabrb3^ECKO mice [4] is “spent equivalent times between the light and dark sides of the open field”. Further, in the experiment with Gabrb3^ECKO mice [5] (sociability phase), the “sociability: stranger mouse vs inanimate object” value was “interacted with the stranger mouse for a significantly longer duration than with the inanimate object”. Moreover, the “social novelty: stranger 2 vs familiar stranger 1” value with Gabrb3^ECKO mice [5] (social novelty phase) was “marked preference for stranger 2”.
